# Source: patent publication US10548897B2, “KSR antagonists” (Icahn School of Medicine at Mount Sinai, priority 2015, dated 2020)
# Experiments:
# [1] = tested on: ERK phosphorylation in SK-MEL-239 cell line; experiment: ERK phosphorylation dose response to trametinib, SK-MEL-239; assay type: cell-based; conditions: SK-MEL-239 (RAF-mutant)
# [2] = target: KSR2^A690F:MEK1 phosphorylation by B-RAF (Homo sapiens (Human), UniProt Q6VAB6, A690F); experiment: RAF phosphorylation assay, KSR2^A690F:MEK1 substrate; assay type: biochemical; conditions: 10 μM compound
# Procedure: FIGS. 9A-9C show phosphorylation of MEK1, KSR2:MEK1, and KSR2^A690F:MEK1 by B-RAF over time in the presence of Compound 21. Relative pMEK was determined by quantification of band intensities from western blots using Image Lab Software 4.1.
# In particular, a variant of B-RAF was identified that could be expressed in high yield from E. Coli and which also retained near wild-type levels of kinase activity towards MEK1. For in vitro kinase assays, indicated concentrations of B-RAF and 1 μM KSR2-MEK1 or 1 μM MEK1 proteins were pre-incubated with 10 μM of indicated compounds for 15 minutes in buffer containing 25 mM Tris pH 7.5, 150 mM NaCl, 10 mM MgCl2, and 2% DMSO. Kinase reactions were initiated by the addition of 100 μM ATP and halted at the indicated times by the addition of 6×SDS loading dye. Samples were examined by western blotting as described for the ATP-biotin experiments and by probing overnight with a MEK1/2 Ser218-Ser222 phospho-specific antibody (Cell signaling). Membranes were visualized using enhanced chemiluminescence on a Biodoc (Biorad) for quantification purposes.
# A549 = experiment: Cell viability, combination with trametinib, A549; assay type: cell-based; conditions: A549 (Ras-mutant)
# Procedure: (§1) High BLISS scores indicate statistically significant synergy between Compound 21 and trametinib specifically within K-Ras mutant cells. Numbers listed within synergy matrices, representing % growth inhibition relative to DMSO controls, are mean of two replicates. Insets highlight dose responses of trametinib in the absence or presence of 1 μM Compound 21.
# (§2) The viability ratio represented the viability observed for treated (inhibitors) relative to controls (DMSO).
# HCT-116 = experiment: Cell viability, combination with trametinib, HCT-116; assay type: cell-based
# Procedure: as §1
# FIGS. 13A-13D show data validating that Compound 21 is synergistic with trametinib in Ras-mutant cells. […] FIGS. 13C-13D show log of the combination index (CI) graphs of Compound 21 in combination with trametinib in HCT-116 vs. SK-MEL-239 cells as compared to the fractional effect (Fa).
# as §2
# KSR2:B-RAF^F667E dimers = KSR2:B-RAF^F667E dimers (Homo sapiens, UniProt Q6VAB6); experiment: Biolayer inferometry of KSR2:B-RAF dimerization (Octet Red96); assay type: binding; conditions: compound at 25 μM
# Procedure: B-RAF and B-RAF mutants (F667E+/−R509H) were immobilized on sensor-heads and KSR2:MEK1 or MEK1 assembly was monitored. Curves indicate dose ranges of KSR2:MEK1 or MEK1 from 625 nM to 10 μM. In all plots, association occurred from 0 to 660 seconds, and dissociation was monitored thereafter up to 1500 seconds. Compound 21 and trametinib were added in the presence of KSR2:MEK1 at a concentration of 25 μM each.
# To directly investigate the impact of Compound 21 on KSR2:B-RAF dimerization, bio-layer inferometry (BLI) was utilized to monitor real-time association and dissociation of KSR2:MEK1 or free MEK1 to a sensor tethered with immobilized B-RAF.
# To specifically monitor KSR2:B-RAF dimerization relative to other possible interactions, a mutation in B-RAF^F667E was identified that eliminates binding to free MEK but not KSR2-MEK1 complexes, as shown in FIGS. 7C-7D. […]
# Interactions between purified B-RAF and the KSR2:MEK1 complex were measured using biolayer inferometry on the Octet Red96 system (Forte Bio). […] Association and dissociation was monitored over 660 and 840 seconds, respectively. Data sets were normalized and analysed using global fit binding models (Fortebio software). […]
compound,measurement,setting,value
"COc1cc2ncnc(Nc3ccc(Oc4ccccc4)cc3C)c2cc1OC [Compound 21, 6,7-Dimethoxy-N-(2-methyl-4-phenoxyphenyl)quinazolin-4-amine 2,2,2-trifluoroacetate]",enhancement in the IC90 of trametinib on ERK phosphorylation,[1],not
same,"MEK phosphorylation by RAF, KSR2^A690F mutant",[2],essentially inactive
same,shift of cell viability dose response to trametinib,A549,shifted the cell viability dose response to trametinib
same,shift of cell viability dose response to trametinib,HCT-116; HCT-116 (Ras-mutant),shifted the cell viability dose response to trametinib
same,combination index (CI) with trametinib,"HCT-116; HCT-116, negative log CI over broad Fa range",strong synergy
same,association of KSR2:MEK1 with immobilized B-RAF^F667E,KSR2:B-RAF^F667E dimers,did not associate
